Measured values as given in patent publication US8183265B2, “2-adamantyl-butyramide derivatives as selective 11β-HSD1 inhibitors” (Merck Patent GmbH, priority 2006, dated 2012).

Target: Human recombinant 11beta-hydroxysteroid dehydrogenase type 1 (11beta-HSD1) (Homo sapiens, UniProt P28845)
Assay: 11beta-HSD1 enzyme assay (HTRF cortisol)
Experimental: Mice liver microsome fractions were purchased from TEBU.
The 11beta-HSD1 enzyme assay was carried out in 96 well microtiter plates in a total volume of 100 μl containing 30 mM Hepes buffer, pH 7.4 with 1 mM EDTA, substrate mixture cortisone/NADPH (200 nM/200 μM), G-6-P (1 mM) and inhibitors in serial dilutions. […] Following mixing, the plates were shaken for 150 minutes at 37° C. The reactions were terminated with 10 μl Acid-18beta glycyrrhetinic stop solution. Determinations of cortisol levels in 11 beta-HSD1 preparations were monitored by HTRF (HTRF cortisol assay from Cis bio international).

Sequence of Human recombinant 11beta-hydroxysteroid dehydrogenase type 1 (11beta-HSD1) (P28845 whole entry): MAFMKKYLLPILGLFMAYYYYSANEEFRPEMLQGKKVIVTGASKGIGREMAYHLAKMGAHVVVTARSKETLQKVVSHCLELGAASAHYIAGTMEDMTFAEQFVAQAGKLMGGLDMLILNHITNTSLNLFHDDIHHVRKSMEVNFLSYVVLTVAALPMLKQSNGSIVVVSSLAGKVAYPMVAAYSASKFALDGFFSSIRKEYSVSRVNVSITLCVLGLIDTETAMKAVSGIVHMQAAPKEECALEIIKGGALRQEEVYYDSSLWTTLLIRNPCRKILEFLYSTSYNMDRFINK

- IC50: 45 nM
Compound: COc1cc(Cl)ccc1OCC(C)(C)CC(=O)NC1C2CC3CC(C2)CC1C3 (stereo not shown)
